From the supplement of paper PMC10307832

Columns and labels:
Assay in all cases: relative viability (nuclei count vs DMSO), 5 days (fraction); higher = more cells survive
[1] = compound: C1CN(CCC1C(C2=CC3=C(C=C2)OCO3)(C4=CC5=C(C=C4)OCO5)O)C(=O)OC6=CC=C(C=C6)[N+](=O)[O-] [JZL-184] + CC(=O)Nc1cccc(-n2c(=O)n(C3CC3)c(=O)c3c(Nc4ccc(I)cc4F)n(C)c(=O)c(C)c32)c1 [Trametinib] (partner 0.02 µM)
In short: (§1)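 Relative viability equals treated-well nuclei counts divided by vehicle-well nuclei counts. Counts came from 4× images of lung cancer cell lines grown in 1536-well plates for 5 days after pin-tool dosing on the day after seeding. Dosing used one drug alone or a fixed anchor-drug dose plus five library-drug doses (not always all listed) in √10 steps, and values are medians of duplicate plates.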

[2] = compound: C1CN(CCC1C(C2=CC3=C(C=C2)OCO3)(C4=CC5=C(C=C4)OCO5)O)C(=O)OC6=CC=C(C=C6)[N+](=O)[O-] [JZL-184] + CC(=O)c1c(C)c2cnc(Nc3ccc(N4CCNCC4)cn3)nc2n(C2CCCC2)c1=O [Palbociclib] (partner 0.5 µM)
In short: as §1

[3] = compound: C1CN(CCC1C(C2=CC3=C(C=C2)OCO3)(C4=CC5=C(C=C4)OCO5)O)C(=O)OC6=CC=C(C=C6)[N+](=O)[O-] [JZL-184] + Cc1cc(Nc2cc(N3CCN(C)CC3)nc(Sc3ccc(NC(=O)C4CC4)cc3)n2)n[nH]1 [Tozasertib] (partner 0.1 µM)
In short: as §1

[4] = compound: C1CN(CCC1C(C2=CC3=C(C=C2)OCO3)(C4=CC5=C(C=C4)OCO5)O)C(=O)OC6=CC=C(C=C6)[N+](=O)[O-] [JZL-184] + Cc1nc(Nc2ncc(C(=O)Nc3c(C)cccc3Cl)s2)cc(N2CCN(CCO)CC2)n1 [Dasatinib] (partner 0.075 µM)
In short: as §1

[5] = compound: C1CN(CCC1C(C2=CC3=C(C=C2)OCO3)(C4=CC5=C(C=C4)OCO5)O)C(=O)OC6=CC=C(C=C6)[N+](=O)[O-] [JZL-184] + NC(=O)Nc1cc(-c2cccc(F)c2)sc1C(=O)N[C@H]1CCCNC1 [AZD7762] (partner 0.2 µM)
In short: as §1

Cell Line	relative viability ([1]; first compound 0.04 µM)	relative viability ([1]; first compound 0.4 µM)	relative viability ([1]; first compound 1.265 µM)	relative viability ([1]; first compound 4 µM)	relative viability ([2]; first compound 0.04 µM)	relative viability ([2]; first compound 0.4 µM)	relative viability ([2]; first compound 1.265 µM)	relative viability ([2]; first compound 4 µM)	relative viability ([3]; first compound 0.04 µM)	relative viability ([3]; first compound 0.4 µM)	relative viability ([3]; first compound 1.265 µM)	relative viability ([3]; first compound 4 µM)	relative viability ([4]; first compound 0.04 µM)	relative viability ([4]; first compound 0.4 µM)	relative viability ([4]; first compound 1.265 µM)	relative viability ([4]; first compound 4 µM)	relative viability ([5]; first compound 0.04 µM)	relative viability ([5]; first compound 0.4 µM)	relative viability ([5]; first compound 1.265 µM)	relative viability ([5]; first compound 4 µM)
LOU-NH91	0.793	0.754	0.848	0.754	0.524	0.509	0.558	0.448	0.806	0.727	0.798	0.629	0.612	0.544	0.605	0.567	0.785	0.754	0.81	0.733
NCI-H1651	0.848	0.872	0.787	0.848	0.547	0.529	0.558	0.519	0.771	0.703	0.689	0.668	0.407	0.376	0.487	0.42	0.427	0.455	0.456	0.474
201T	0.676	0.724	0.706	0.688	0.383	0.339	0.373	0.344	1.02	0.981	0.988	0.862	0.577	0.535	0.61	0.574	0.711	0.57	0.586	0.611
NCI-H3122	0.211	0.168	0.242	0.242	0.168	0.181	0.22	0.208	0.432	0.393	0.453	0.396	0.918	0.718	0.872	0.778	1.05	0.866	0.99	1.02
NCI-H727	0.416	0.366	0.414	0.39	0.64	0.708	0.63	0.738	0.594	0.568	0.777	0.583	0.37	0.443	0.398	0.334	0.493	0.464	0.621	0.595
NCI-H441	0.473	0.436	0.49	0.487	0.207	0.229	0.238	0.236	0.769	0.567	0.533	0.513	0.584	0.546	0.606	0.524	1.44	1.23	1	1.02
HOP-62	0.372	0.4	0.375	0.371	0.481	0.374	0.453	0.455	0.356	0.402	0.366	0.335	0.561	0.679	0.659	0.631	0.617	0.53	0.754	0.417
RERF-LC-KJ	0.952	0.868	0.876	0.781	1.17	1.14	1.17	0.982	0.499	0.37	0.453	0.436	0.909	0.72	0.864	0.759	1.11	0.963	0.895	1
LCLC-103H	0.644	0.664	0.691	0.674	0.438	0.213	0.502	0.511	0.488	0.521	0.521	0.529	0.45	0.557	0.489	0.392	0.791	0.764	0.833	0.754
NCI-H1915	0.301	0.293	0.328	0.297	0.506	0.511	0.531	0.511	0.491	0.41	0.461	0.376	0.318	0.298	0.364	0.281	0.76	0.58	0.726	0.697
ChaGo-K-1	0.925	0.849	0.929	0.788	1	0.933	0.975	0.951	0.265	0.224	0.211	0.235	0.657	0.581	0.61	0.595	0.865	0.761	0.933	0.832
PC-14	1.1	0.693	0.738	0.635	0.659	0.49	0.517	0.519	0.647	0.623	0.631	0.485	0.293	0.271	0.287	0.255	0.391	0.337	0.387	0.321
NCI-H1437	0.495	0.482	0.479	0.445	0.333	0.321	0.297	0.282	0.395	0.398	0.397	0.402	0.414	0.304	0.434	0.405	1.19	1.07	1.15	1.19
NCI-H1734	0.721	0.611	0.72	0.606	0.394	0.293	0.37	0.292	0.265	0.231	0.255	0.247	0.503	0.425	0.442	0.453	0.571	0.518	0.719	0.625
LK-2	0.903	0.736	0.856	0.721	0.817	0.514	0.795	0.887	0.166	0.163	0.171	0.181	0.379	0.364	0.295	0.325	0.438	0.501	0.422	0.411
HCC-15	0.384	0.353	0.413	0.431	0.732	0.77	0.71	0.698	0.521	0.415	0.407	0.331	0.647	0.673	0.677	0.524	1	1.21	1.3	1.14
HCC-366	0.384	0.348	0.332	0.276	0.426	0.374	0.394	0.322	0.133	0.508	0.109	0.0909	0.892	0.64	0.61	0.638	0.293	0.209	0.275	0.257
NCI-H650	1.06	0.871	0.963	0.995	0.358	0.292	0.321	0.317	0.84	0.731	0.848	0.761	0.439	0.392	0.472	0.441	0.997	1.1	1.07	0.988
NCI-H2347	–	0.313	0.275	0.283	–	0.398	0.407	0.443	0.447	0.442	0.551	0.662	0.277	0.305	0.29	0.369	–	0.758	0.82	0.703
LXF-289	0.789	0.604	0.668	0.668	0.693	0.564	0.572	0.595	0.221	0.206	0.198	0.22	0.173	0.281	0.207	0.307	1.07	1.08	1.1	1.06
BEN	0.967	1.06	1.07	1.04	0.457	0.46	0.445	0.491	0.513	0.536	0.506	0.456	0.333	0.349	0.328	0.337	0.731	0.666	0.752	0.792
NCI-H1355	0.44	0.403	0.423	0.38	0.376	0.381	0.423	0.4	0.589	0.515	0.612	0.433	0.723	0.662	0.783	0.672	0.922	0.674	0.769	0.733
NCI-H1793	0.433	0.481	0.455	0.438	0.271	0.285	0.281	0.312	0.289	0.385	0.409	0.233	0.511	0.36	0.41	0.369	0.359	0.465	0.742	0.401
NCI-H838	0.65	0.569	0.543	0.477	0.22	0.259	0.235	0.199	0.285	0.299	0.294	0.238	0.286	0.307	0.289	0.3	1.01	0.896	0.929	0.915
EMC-BAC-2	0.955	0.899	0.832	0.827	0.584	0.458	0.508	0.512	0.296	0.282	0.285	0.287	0.349	0.32	0.336	0.326	1.16	1.11	1.14	1.08
LU99A	0.574	0.469	0.607	0.638	0.455	0.36	0.471	0.42	0.283	0.299	0.317	0.285	0.717	0.443	0.525	0.541	0.364	0.363	0.346	0.328
PC-3 [JPC-3]	0.779	0.71	0.708	0.687	0.573	0.558	0.485	0.536	1.01	0.827	0.895	0.865	1.01	0.905	0.976	0.945	0.773	0.71	0.94	0.8
LCLC-97TM1	0.215	0.182	0.222	0.206	0.283	0.195	0.255	0.274	0.41	0.177	0.242	0.242	0.903	0.778	0.911	0.763	0.281	0.134	0.244	0.303
NCI-H1993	0.496	0.51	0.517	0.559	0.707	0.604	0.758	0.604	0.554	0.582	0.593	0.555	0.498	0.617	0.709	0.674	0.704	0.725	0.885	0.803
HARA	0.678	–	0.652	0.696	0.25	0.204	0.273	0.238	0.134	0.0806	0.107	0.108	0.309	0.16	0.29	0.28	0.126	–	0.43	0.379
